# Key:
# Assay type in all cases: cell-based
# human TLR8 = molecular target: T1, human TLR8 (Homo sapiens, UniProt Q9NR97); assay: TLR8 inhibition reporter assay (HEK-Blue SEAP reporter, R848 stimulation); settings: HEK-Blue cells overexpressing human TLR8, SEAP reporter, R848 15.9 μM, 22 hour incubation
# T1 construct: host or cells: HEK-Blue cells
# T1 sequence (Q9NR97 27-1041): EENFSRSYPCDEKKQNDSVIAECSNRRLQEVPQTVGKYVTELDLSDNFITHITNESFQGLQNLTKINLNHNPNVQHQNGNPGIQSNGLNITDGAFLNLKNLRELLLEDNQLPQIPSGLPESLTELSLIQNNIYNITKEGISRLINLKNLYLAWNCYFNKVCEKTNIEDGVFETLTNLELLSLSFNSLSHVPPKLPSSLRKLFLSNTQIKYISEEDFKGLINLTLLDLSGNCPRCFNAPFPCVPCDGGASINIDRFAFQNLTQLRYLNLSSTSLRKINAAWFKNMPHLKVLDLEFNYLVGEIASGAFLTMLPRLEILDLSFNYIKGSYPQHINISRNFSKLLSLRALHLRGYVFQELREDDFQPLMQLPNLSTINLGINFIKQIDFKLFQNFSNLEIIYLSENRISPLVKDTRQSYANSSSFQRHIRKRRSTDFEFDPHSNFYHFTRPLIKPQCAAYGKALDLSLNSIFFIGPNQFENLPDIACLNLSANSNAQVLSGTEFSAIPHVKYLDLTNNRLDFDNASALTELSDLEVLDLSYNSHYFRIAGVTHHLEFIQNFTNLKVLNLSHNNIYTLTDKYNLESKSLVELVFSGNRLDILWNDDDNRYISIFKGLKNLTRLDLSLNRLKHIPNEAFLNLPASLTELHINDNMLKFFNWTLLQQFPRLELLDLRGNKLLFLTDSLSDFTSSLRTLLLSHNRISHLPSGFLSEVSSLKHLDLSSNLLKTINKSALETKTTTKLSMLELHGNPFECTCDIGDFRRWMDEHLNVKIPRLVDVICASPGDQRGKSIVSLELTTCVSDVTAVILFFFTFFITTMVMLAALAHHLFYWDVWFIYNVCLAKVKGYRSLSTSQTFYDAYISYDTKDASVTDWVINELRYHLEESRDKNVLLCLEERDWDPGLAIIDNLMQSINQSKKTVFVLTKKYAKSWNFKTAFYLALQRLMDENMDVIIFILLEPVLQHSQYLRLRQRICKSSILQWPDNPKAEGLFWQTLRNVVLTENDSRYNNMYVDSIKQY
# Procedure, shortened: (§1)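 Dose–response from 0.05 nM to 50 μM was run in HEK-Blue human TLR7, TLR8 and TLR9 reporter cells. After 30 min at room temperature with compound, ligand was added (TLR7 gardiquimod 7.5 μM; TLR8 R848 15.9 μM; TLR9 ODN2006 5 nM) and SEAP measured next day, at 22 h.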
# human TLR9 = molecular target: T2, human TLR9 (Homo sapiens, UniProt Q9NR96); assay: TLR9 inhibition reporter assay (HEK-Blue SEAP reporter, ODN2006 stimulation); settings: HEK-Blue cells overexpressing human TLR9, SEAP reporter, ODN2006 5 nM, 22 hour incubation
# T2 construct: host or cells: HEK-Blue cells
# T2 sequence (Q9NR96 26-1032): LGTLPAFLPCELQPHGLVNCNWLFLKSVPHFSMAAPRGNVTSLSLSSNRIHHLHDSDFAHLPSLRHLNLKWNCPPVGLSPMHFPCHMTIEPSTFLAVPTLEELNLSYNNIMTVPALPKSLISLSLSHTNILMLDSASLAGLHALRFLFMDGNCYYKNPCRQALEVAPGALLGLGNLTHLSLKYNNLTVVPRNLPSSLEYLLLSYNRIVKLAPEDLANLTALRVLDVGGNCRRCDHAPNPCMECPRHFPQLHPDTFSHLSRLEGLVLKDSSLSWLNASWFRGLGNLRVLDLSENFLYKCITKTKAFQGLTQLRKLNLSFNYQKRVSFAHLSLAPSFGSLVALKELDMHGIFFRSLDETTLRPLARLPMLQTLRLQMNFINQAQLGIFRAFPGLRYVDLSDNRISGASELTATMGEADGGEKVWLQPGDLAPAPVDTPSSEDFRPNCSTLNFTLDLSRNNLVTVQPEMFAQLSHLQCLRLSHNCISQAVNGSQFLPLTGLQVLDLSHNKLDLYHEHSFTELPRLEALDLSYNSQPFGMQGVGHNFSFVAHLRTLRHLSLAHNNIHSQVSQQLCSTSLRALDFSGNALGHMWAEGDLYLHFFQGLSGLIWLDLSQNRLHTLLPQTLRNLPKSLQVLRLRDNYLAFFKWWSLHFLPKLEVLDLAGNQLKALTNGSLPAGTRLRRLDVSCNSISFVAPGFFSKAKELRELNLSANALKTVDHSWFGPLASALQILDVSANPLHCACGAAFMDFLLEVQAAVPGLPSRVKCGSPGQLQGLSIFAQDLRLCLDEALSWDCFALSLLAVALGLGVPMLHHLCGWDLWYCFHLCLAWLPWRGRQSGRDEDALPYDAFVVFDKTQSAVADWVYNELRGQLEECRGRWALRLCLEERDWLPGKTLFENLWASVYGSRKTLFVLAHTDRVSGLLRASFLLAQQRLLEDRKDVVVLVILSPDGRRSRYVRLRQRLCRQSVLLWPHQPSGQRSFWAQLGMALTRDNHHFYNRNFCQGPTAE
# Procedure, shortened: as §1
# human TLR7 = molecular target: T3, human TLR7 (Homo sapiens, UniProt Q9NYK1); assay: TLR7 inhibition reporter assay (HEK-Blue SEAP reporter, gardiquimod stimulation); settings: HEK-Blue cells overexpressing human TLR7, SEAP reporter, gardiquimod 7.5 μM, 22 hour incubation
# T3 construct: host or cells: HEK-Blue cells
# T3 sequence (Q9NYK1 27-1049): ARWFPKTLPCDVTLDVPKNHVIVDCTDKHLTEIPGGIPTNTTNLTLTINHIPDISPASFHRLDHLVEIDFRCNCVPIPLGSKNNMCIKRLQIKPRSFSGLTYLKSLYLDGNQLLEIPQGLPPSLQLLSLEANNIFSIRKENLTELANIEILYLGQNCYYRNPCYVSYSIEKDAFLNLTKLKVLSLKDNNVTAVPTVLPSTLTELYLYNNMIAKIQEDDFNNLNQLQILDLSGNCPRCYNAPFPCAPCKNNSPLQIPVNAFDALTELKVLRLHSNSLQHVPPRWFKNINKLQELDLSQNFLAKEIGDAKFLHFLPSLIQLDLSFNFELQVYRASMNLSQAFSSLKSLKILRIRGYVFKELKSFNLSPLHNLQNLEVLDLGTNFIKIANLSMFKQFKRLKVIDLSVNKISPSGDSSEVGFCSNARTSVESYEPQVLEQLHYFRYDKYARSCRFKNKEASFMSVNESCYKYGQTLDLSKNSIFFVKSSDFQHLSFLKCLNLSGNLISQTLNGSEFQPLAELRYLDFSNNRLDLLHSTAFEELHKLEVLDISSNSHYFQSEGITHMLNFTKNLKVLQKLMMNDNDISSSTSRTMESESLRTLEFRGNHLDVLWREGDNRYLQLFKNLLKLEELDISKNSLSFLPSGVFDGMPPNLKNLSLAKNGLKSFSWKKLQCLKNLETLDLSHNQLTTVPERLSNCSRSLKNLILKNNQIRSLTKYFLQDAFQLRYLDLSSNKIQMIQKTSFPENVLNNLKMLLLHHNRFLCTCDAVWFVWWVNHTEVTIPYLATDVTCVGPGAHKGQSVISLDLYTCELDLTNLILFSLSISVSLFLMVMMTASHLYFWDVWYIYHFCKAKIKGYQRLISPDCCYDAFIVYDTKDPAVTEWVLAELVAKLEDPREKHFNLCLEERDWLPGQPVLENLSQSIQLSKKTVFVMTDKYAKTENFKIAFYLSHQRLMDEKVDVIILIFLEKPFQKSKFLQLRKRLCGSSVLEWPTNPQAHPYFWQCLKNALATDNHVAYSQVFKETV
# Procedure, shortened: as §1
Compound,IC50 (human TLR8) [µM],IC50 (human TLR9) [µM],IC50 (human TLR7) [µM]
"Cc1cc(-c2[nH]c3ccc(C4CCN(Cc5ncnn5C)CC4)cc3c2C(C)C)cn(C)c1=O [Example 198, 5-(3-isopropyl-5-(1-((1-methyl-1H-1,2,4-triazol-5-yl)methyl)piperidin-4-yl)-1H-indol-2-yl)-1,3-dimethylpyridin-2(1H)-one]",0.0134,≥ 50,0.0091
"COc1cc(-c2[nH]c3ccc(C4CCN(C5COC5)CC4)cc3c2C(C)C)cn(C)c1=O [Example 202, 5-(3-isopropyl-5-(1-(oxetan-3-yl)piperidin-4-yl)-1H-indol-2-yl)-3-methoxy-1-methylpyridin-2(1H)-one]",0.0135,5.63,0.0113
"Cc1c(-c2[nH]c3ccc(C4CCN(C5COC5)CC4)cc3c2C(C)C)nn(C)c(=O)c1C [Example 203, 6-(3-isopropyl-5-(1-(oxetan-3-yl)piperidin-4-yl)-1H-indol-2-yl)-2,4,5-trimethylpyridazin-3(2H)-one]",0.0287,16.9,0.272
"CCn1cc(-c2[nH]c3ccc(C4CCN(C5COC5)CC4)cc3c2C(C)C)cc(C)c1=O [Example 204, 1-ethyl-5-(3-isopropyl-5-(1-(oxetan-3-yl)piperidin-4-yl)-1H-indol-2-yl)-3-methylpyridin-2(1H)-one]",0.018,≥ 50,0.0146
"Cc1c(-c2[nH]c3ccc(C4CCN(C5CCOCC5)CC4)cc3c2C(C)C)nn(C)c(=O)c1C [Example 205, 6-(3-isopropyl-5-(1-(tetrahydro-2H-pyran-4-yl)piperidin-4-yl)-1H-indol-2-yl)-2,4,5-trimethylpyridazin-3(2H)-one]",0.0198,8.71,0.501
"CCn1cc(-c2[nH]c3ccc(C4CCN(C5COC5)CC4)cc3c2C(C)C)c(C)c(C)c1=O [Example 209, 1-ethyl-5-(3-isopropyl-5-(1-(oxetan-3-yl)piperidin-4-yl)-1H-indol-2-yl)-3,4-dimethylpyridin-2(1H)-one]",0.018,17.5,0.0343

# The next compounds have a lower IC50 (human TLR8) than those just listed; values first:
IC50 (human TLR8) [µM],IC50 (human TLR9) [µM],IC50 (human TLR7) [µM],Compound
0.0024,8.34,0.0046,"Cc1cc(-c2[nH]c3ccc(C4CCN(Cc5ccnn5C)CC4)cc3c2C(C)C)cn(C)c1=O [Example 197, 5-(3-isopropyl-5-(1-((1-methyl-1H-pyrazol-5-yl)methyl)piperidin-4-yl)-1H-indol-2-yl)-1,3-dimethylpyridin-2(1H)-one]"
0.0042,1.55,0.0019,"Cc1cc(-c2[nH]c3ccc(C4CCN(C5CCC(F)(F)CC5)CC4)cc3c2C(C)C)cn(C)c1=O [Example 199, 5-(5-(1-(4,4-difluorocyclohexyl)piperidin-4-yl)-3-isopropyl-1H-indol-2-yl)-1,3-dimethylpyridin-2(1H)-one]"
0.0022,3.74,0.0043,"Cc1cc(-c2[nH]c3ccc(C4CCN(CC5=NN=CC5)CC4)cc3c2C(C)C)cn(C)c1=O [Example 200, 5-(5-(1-((4H-pyrazol-3-yl)methyl)piperidin-4-yl)-3-isopropyl-1H-indol-2-yl)-1,3-dimethylpyridin-2(1H)-one]"
0.0044,0.959,0.004,"COc1cc(-c2[nH]c3ccc(C4CCN(C5CCOCC5)CC4)cc3c2C(C)C)cn(C)c1=O [Example 201, 5-(3-isopropyl-5-(1-(tetrahydro-2H-pyran-4-yl)piperidin-4-yl)-1H-indol-2-yl)-3-methoxy-1-methylpyridin-2(1H)-one]"
0.0026,4.49,0.0189,"Cc1c(-c2[nH]c3ccc(C4CCN(C5CCOCC5)CC4)cc3c2C(C)C)cn(C)c(=O)c1C [Example 206, 5-(3-isopropyl-5-(1-(tetrahydro-2H-pyran-4-yl)piperidin-4-yl)-1H-indol-2-yl)-1,3,4-trimethylpyridin-2(1H)-one]"
0.0117,46.8,0.0208,"Cc1c(-c2[nH]c3ccc(C4CCN(C5COC5)CC4)cc3c2C(C)C)cn(C)c(=O)c1C [Example 207, 5-(3-isopropyl-5-(1-(oxetan-3-yl)piperidin-4-yl)-1H-indol-2-yl)-1,3,4-trimethylpyridin-2(1H)-one]"
0.007,3.11,0.0311,"CCn1cc(-c2[nH]c3ccc(C4CCN(C5CCOCC5)CC4)cc3c2C(C)C)c(C)c(C)c1=O [Example 208, 1-ethyl-5-(3-isopropyl-5-(1-(tetrahydro-2H-pyran-4-yl)piperidin-4-yl)-1H-indol-2-yl)-3,4-dimethylpyridin-2(1H)-one]"
0.0027,5.03,0.0247,"Cc1cc(-c2[nH]c3ccc(C4CCN(C5CCOCC5)CC4)cc3c2C(C)C)c(C)n(C)c1=O [Example 210, 5-(3-isopropyl-5-(1-(tetrahydro-2H-pyran-4-yl)piperidin-4-yl)-1H-indol-2-yl)-1,3,6-trimethylpyridin-2(1H)-one]"
